{"source": "ChEMBL document CHEMBL5505987", "about": "(Eur J Med Chem, 2024)", "key": {"MCF7": {"test_system": "MCF7", "experiment": "Cytotoxicity against human MCF7 cells assessed as cell viability by MTT assay", "assay_type": "functional, cell-based"}, "MDA-MB-231 [1]": {"test_system": "MDA-MB-231", "experiment": "Induction of cell cycle arrest in human MDA-MB-231 cells assessed as accumulation of cells at G0/G1 phase measured after 24 hrs in presence of SB-431542 TGF-beta signaling inhibitor by PI staining by flow cytometry", "assay_type": "functional, cell-based"}, "4T1 [2]": {"test_system": "4T1", "experiment": "Induction of mitochondrial membrane potential loss in mouse 4T1 cells assessed as increase in fluorescence intensity by JC-1 monomer assay", "assay_type": "functional, cell-based", "conditions": "dose 2-4 µM"}, "MDA-MB-231 [3]": {"test_system": "MDA-MB-231", "experiment": "Anti-tumor activity against human MDA-MB-231 cells assessed as change in TGF-beta1/Smad signaling pathway by measuring increase in p-Smad3 level after 24 hrs incubation by Western blot analysis", "assay_type": "functional, cell-based", "conditions": "dose 1-4 µM"}, "MDA-MB-231 [4]": {"test_system": "MDA-MB-231", "experiment": "Induction of ROS production in human MDA-MB-231 cells at 1 to 4 uM incubated for 24 hrs by flow cytometry", "assay_type": "functional, cell-based", "conditions": "dose 1-4 µM"}, "MDA-MB-231 [5]": {"test_system": "MDA-MB-231", "experiment": "Induction of cell cycle arrest in human MDA-MB-231 cells assessed as accumulation of cells at G0/G1 phase at 1 uM measured after 24 hrs by PI staining by flow cytometry", "assay_type": "functional"}, "MDA-MB-231 [6]": {"test_system": "MDA-MB-231", "experiment": "Cytotoxicity against human MDA-MB-231 cells assessed as cell viability by MTT assay", "assay_type": "functional, cell-based"}, "4T1 [7]": {"test_system": "4T1", "experiment": "Induction of mitochondrial membrane potential loss in mouse 4T1 cells assessed as decrease in fluorescence intensity by JC-1 aggregate assay", "assay_type": "functional, cell-based", "conditions": "dose 2-4 µM"}, "MDA-MB-231 [8]": {"test_system": "MDA-MB-231", "experiment": "Induction of apoptosis in human MDA-MB-231 cells assessed as increase in Bax expression at 1 to 4 uM incubated for 24 hrs by Western blotting analysis", "assay_type": "functional, cell-based", "conditions": "dose 1-4 µM"}, "MDA-MB-231 [9]": {"test_system": "MDA-MB-231", "experiment": "Anti-tumor activity against human MDA-MB-231 cells assessed as change in TGF-beta1/Smad signaling pathway by measuring fluorescence intensity of p-Smad2 level at 2 to 4 uM after 24 hrs incubation by immunofluorescence staining assay", "assay_type": "functional, cell-based", "conditions": "dose 2-4 µM"}, "4T1 [10]": {"test_system": "4T1", "experiment": "Induction of ROS production in mouse 4T1 cells at 1 to 4 uM incubated for 24 hrs by flow cytometry", "assay_type": "functional, cell-based", "conditions": "dose 1-4 µM"}, "4T1 [11]": {"test_system": "4T1", "experiment": "Induction of cell cycle arrest in mouse 4T1 cells assessed as accumulation of cells at G0/G1 phase measured after 24 hrs in presence of SB-431542 TGF-beta signaling inhibitor by PI staining by flow cytometry", "assay_type": "functional, cell-based"}, "MDA-MB-231 [12]": {"test_system": "MDA-MB-231", "experiment": "Anti-proliferative activity against human MDA-MB-231 cells assessed as cell viability measured after 24 hrs by MTT assay", "assay_type": "functional, cell-based", "conditions": "dose 1-8 µM"}, "MDA-MB-231 [13]": {"test_system": "MDA-MB-231", "experiment": "Anti-tumor activity against human MDA-MB-231 cells assessed as change in TGF-beta1/Smad signaling pathway by measuring fluorescence intensity of p-Smad3 level at 2 to 4 uM after 24 hrs incubation by immunofluorescence staining assay", "assay_type": "functional, cell-based", "conditions": "dose 2-4 µM"}, "MDA-MB-231 [14]": {"test_system": "MDA-MB-231", "experiment": "Induction of cell cycle arrest in human MDA-MB-231 cells assessed as reduction in CDK6 expression at 1 to 4 uM measured after 24 hrs by immunoblotting assay", "assay_type": "functional, cell-based", "conditions": "dose 1-4 µM"}, "4T1 [15]": {"test_system": "4T1", "experiment": "Induction of cell cycle arrest in mouse 4T1 cells assessed as accumulation of cells at G0/G1 phase at 6 uM measured after 24 hrs by PI staining by flow cytometry", "assay_type": "functional"}, "MDA-MB-231 [16]": {"test_system": "MDA-MB-231", "experiment": "Induction of apoptosis in human MDA-MB-231 cells assessed as increase in apoptotic rate incubated for 24 hrs in presence of SB-431542 TGF-beta signaling inhibitor by Annexin V-FITC/PI double staining by flow cytometry", "assay_type": "functional, cell-based"}, "MDA-MB-231 [17]": {"test_system": "MDA-MB-231", "experiment": "Antimigratory activity against human MDA-MB-231 cells assessed as decrease in migration of tumor cells into scratching region at 8 to 10 uM incubated for 12 to 24 hrs by Wound healing assay", "assay_type": "functional, cell-based", "conditions": "dose 8-10 µM, time 12-24 hrs"}, "MDA-MB-231 [18]": {"test_system": "MDA-MB-231", "experiment": "Induction of apoptosis in human MDA-MB-231 cells assessed as increase in apoptotic rate at 4 uM incubated for 24 hrs by Annexin V-FITC/PI double staining by flow cytometry", "assay_type": "functional"}, "MDA-MB-231 [19]": {"test_system": "MDA-MB-231", "experiment": "Anti-metastatic activity in human MDA-MB-231 cells assessed as increase in E-cadherin protein level at 1 to 4 uM by Western blotting analysis", "assay_type": "functional, cell-based", "conditions": "dose 1-4 µM"}, "MDA-MB-231 [20]": {"test_system": "MDA-MB-231", "experiment": "Induction of cell cycle arrest in human MDA-MB-231 cells assessed as accumulation of cells at G0/G1 phase at 4 uM measured after 24 hrs by PI staining by flow cytometry", "assay_type": "functional"}, "4T1 [21]": {"test_system": "4T1", "experiment": "Reduction of ATP level in mouse 4T1 cells incubated for 24 hrs by colorimetric based ATP Content Assay Kit", "assay_type": "functional, cell-based", "conditions": "dose 1-4 µM"}, "MDA-MB-231 [22]": {"test_system": "MDA-MB-231", "experiment": "Induction of DNA damage in human MDA-MB-231 cells assessed as increase in gamma-H2AX focal expression at 2 to 4 uM by immunofluorescence staining assay", "assay_type": "functional, cell-based", "conditions": "dose 2-4 µM"}, "MDA-MB-231 [23]": {"test_system": "MDA-MB-231", "experiment": "Induction of apoptosis in human MDA-MB-231 cells assessed as decrease in Bcl-2 expression at 1 to 4 uM incubated for 24 hrs by Western blotting analysis", "assay_type": "functional, cell-based", "conditions": "dose 1-4 µM"}, "MDA-MB-231 [24]": {"test_system": "MDA-MB-231", "experiment": "Induction of mitochondrial membrane potential loss in human MDA-MB-231 cells assessed as increase in fluorescence intensity by JC-1 monomer assay", "assay_type": "functional, cell-based", "conditions": "dose 2-4 µM"}, "4T1 [25]": {"test_system": "4T1", "experiment": "Inhibition of colony formation in mouse 4T1 cells assessed as reduction in colony formation treated for 10 days medium refreshed every two days by crustal violet based assay", "assay_type": "functional, cell-based", "conditions": "time 10.0 day"}, "4T1 [26]": {"test_system": "4T1", "experiment": "Anti-tumor activity against mouse 4T1 cells assessed as decrease in cell viability at 8 uM incubated for 24 hrs in presence of SB-431542 TGF-beta signaling inhibitor by MTT assay", "assay_type": "functional, cell-based"}, "MDA-MB-231 [27]": {"test_system": "MDA-MB-231", "experiment": "Anti-invasive activity in human MDA-MB-231 cells assessed as reduction in cell invasion incubated for 24 hrs by Transwell assay", "assay_type": "functional, cell-based", "conditions": "dose 3-6 µM"}, "MDA-MB-231 [28]": {"test_system": "MDA-MB-231", "experiment": "Reduction in PCNA protein expression in human MDA-MB-231 cells by Western blotting analysis", "assay_type": "functional, cell-based", "conditions": "dose 1-4 µM"}, "4T1 [29]": {"test_system": "4T1", "experiment": "Anti-invasive activity in mouse 4T1 cells assessed as reduction in cell invasion incubated for 24 hrs by Transwell assay", "assay_type": "functional, cell-based", "conditions": "dose 3-6 µM"}}, "note": "Activity calls are given as the source filed them. The calls are words filed in the database; no cut-off is given here."}
{"smiles": "O=C1C[C@@H](c2ccccc2)Oc2cc(O)c([C@H](/C=C/C[C@@H](O)CCc3ccccc3)c3ccccc3)c(O)c21", "values": [{"measurement": "IC50", "setting": "MCF7", "value": 8.64, "unit": "µM"}, {"measurement": "Activity", "setting": "MDA-MB-231 [1]", "value": "inactive"}, {"measurement": "Activity", "setting": "4T1 [2]", "value": "Dose-Dependent Effect"}, {"measurement": "Activity", "setting": "MDA-MB-231 [3]", "value": "Dose-Dependent Effect"}, {"measurement": "Activity", "setting": "MDA-MB-231 [4]", "value": "Active"}, {"measurement": "Activity", "setting": "MDA-MB-231 [5]", "value": 49.59, "unit": "%"}, {"measurement": "IC50", "setting": "MDA-MB-231 [6]", "value": 4.33, "unit": "µM"}, {"measurement": "Activity", "setting": "4T1 [7]", "value": "Dose-Dependent Effect"}, {"measurement": "Activity", "setting": "MDA-MB-231 [8]", "value": "Active"}, {"measurement": "Activity", "setting": "MDA-MB-231 [9]", "value": "Active"}, {"measurement": "Activity", "setting": "4T1 [10]", "value": "Active"}, {"measurement": "Activity", "setting": "4T1 [11]", "value": "inactive"}, {"measurement": "Activity", "setting": "MDA-MB-231 [12]", "value": "Dose-Dependent Effect"}, {"measurement": "Activity", "setting": "MDA-MB-231 [13]", "value": "Active"}, {"measurement": "Activity", "setting": "MDA-MB-231 [14]", "value": "Active"}, {"measurement": "Activity", "setting": "4T1 [15]", "value": 78.34, "unit": "%"}, {"measurement": "Activity", "setting": "MDA-MB-231 [16]", "value": "inactive"}, {"measurement": "Activity", "setting": "MDA-MB-231 [17]", "value": "Active"}, {"measurement": "Activity", "setting": "MDA-MB-231 [18]", "value": 46.4, "unit": "%"}, {"measurement": "Activity", "setting": "MDA-MB-231 [19]", "value": "Active"}, {"measurement": "Activity", "setting": "MDA-MB-231 [20]", "value": 71.78, "unit": "%"}, {"measurement": "inhibition", "setting": "4T1 [21]", "value": "Active"}, {"measurement": "Activity", "setting": "MDA-MB-231 [22]", "value": "Active"}, {"measurement": "Activity", "setting": "MDA-MB-231 [23]", "value": "Active"}, {"measurement": "Activity", "setting": "MDA-MB-231 [24]", "value": "Dose-Dependent Effect"}, {"measurement": "inhibition", "setting": "4T1 [25]", "value": "Dose-Dependent Effect"}, {"measurement": "Activity", "setting": "4T1 [26]", "value": "inactive"}, {"measurement": "Activity", "setting": "MDA-MB-231 [27]", "value": "Dose-Dependent Effect"}, {"measurement": "inhibition", "setting": "MDA-MB-231 [28]", "value": "Dose-Dependent Effect"}, {"measurement": "Activity", "setting": "4T1 [29]", "value": "Dose-Dependent Effect"}]}
